The values below come from patent US8981150B2 (priority 2009, dated 2015).

Bounds are passed on as bounds.

A short description of the data set: Solubility in water.
Regarding `CCCC(OC)C(=O)N(C)C` (stereo not shown) [Product 6], the “Solubility in water (% w/w)” value is on record as <0.1 % w/w.

Take `CCCC(OCC)C(=O)N(C)C` (stereo not shown) [Product 7]: the “Solubility in water (% w/w)” value is reported as <0.1 % w/w. On to `CCCCC(OC)C(=O)N(C)C` (stereo not shown) [Product 4], for which the “Solubility in water (% w/w)” value is <0.05 % w/w.

As for `CCCCC(OCC)C(=O)N(C)C` (stereo not shown) [Product 5], the “Solubility in water (% w/w)” value is <0.05 % w/w.
